Assays:
[1] = system: MCF7 human breast cancer cells; assay: Dox-induced DNA damage (AP sites) in MCF7 cells used as surrogate CTCs, extended DNA fibers; type: cell-based
From the text: MCF7 cells were exposed to Doxorubicin (Dox) in culture (1) or exposed to Dox in culture and then processed using the Mag Sweeper Oft MCF7 cells processed identically but not treated with Dox served as controls in each case. Cells were next were recovered, put onto slides and lysed and DNA extended
MCF7 cells were exposed to Doxorubicin (Dox) alone (first three bars) or exposed to Dox first then isolated using Mag Sweeper (fourth, filth, sixth bars). Thereafter. DNA was extended on slides following cell lysis and DNA and sites of DNA damage were stained with fluorescent probes Images of extended fluorescently-labeled DNA fibers were obtained and DNA content and DNA damage site number were determined by computer analysis of the images. Results of the analysis of DNA damage in the bars is reported with the ordinate of the graph scaled as the number of DNA damage sites, in this case AP sites, per 10^6 nucleotides in length
In an initial study, MCF7 human breast cancer cells, a line of human breast adenocarcinoma, were used to simulated CTCs. The “simulated CTCs” were exposed to 0, 0.33, and 0.66 μM doxorubicin (Dox). Doxorubicin is a principal chemotherapeutic agent for breast cancer and the doses of the drug were chosen to approximate dose levels achieved in patients. In one experiment, untreated cells and cells treated with Dox were harvested 16 hours after starting sham or drug treatment and slides of extended DNA were prepared from the untreated and treated cells. The amount of DNA damage for each treatment condition was then determined. This experiment was designed to test whether drug exposure of the cells alone increased DNA damage in the form of abasic (AP) sites (FIG. 13, upper path). Next, untreated cells and cells treated with Dox were collected 16 hours after starting sham or drug treatment. The cells were subjected to a CTC isolation technique referred to as the ‘Mag Sweeper’ process (15) and the recovered cells' DNA harvested and placed on slides to extend the DNA and then the DNA analyzed for damage as described herein ([…], lower path).

DT40 cells [2] = conditions: cells exposed to 20 μM H2O2
Procedure: (§1) Avian DT40 cells (38, 39) were grown at 39.5° C., the normal Avian body temperature, in a humidified atmosphere supplemented with 5% CO2 as a suspension in RPMI-1640 (Invitrogen) supplemented with 10% fetal bovine serum (Sigma), 1% chicken serum (Sigma and Invitrogen), and containing 100 μg/ml penicillin and 100 μg/ml streptomycin (Invitrogen).
DNA was isolated from DT40 cells in normal culture conditions or DT40 cells experiencing oxidative stress and processed for slot-blot analysis as described previously (2).

DT40 cells [3] = system: DT40 cells
Procedure: Briefly, cells growing in culture were first labeled for 10 min in medium with 100 μM iododeoxyurine (IdU), and then centrifuged to remove the medium containing IdU. […] After exposure to the second halogenated nucleotide, the cells were harvested by centrifugation and resuspended in ice cold PBS at about 200 cells/μl.
For the detection of IdU and CIdU within the DNA fiber spreads, the slides were treated with 2.5 M HCl for 30 min, washed several times in PBS, and blocked in 3% bovine serum albumin in PBS for 60 min. […]
To determine the number of nt that had been replicated (i.e., incorporated IdU or CIdU) in normal culture conditions, the total amount of fluorescence from both IdU and CIdU was measured. The number of AP sites co-localized in areas where DNA had replicated was assessed using the co-localization function provided by Image J. In this series of experiments, AP sites were marked by blue signal and those that co-localized with areas undergoing replication were counted using the particle counter function of Image J. To determine the amount of replicating DNA expressed in nt, the total amount of red and green fluorescence (IdU and CIdU, respectively) was determined and then divided by fluorescence intensity per nt, as described above.
To determine the number of AP sites per unit length of DNA in areas undergoing replication, cells were first pulsed with IdU (a nucleotide precursor), and then pulsed with CIdU (a different precursor). […] Fluorescently labeled AP sites were readily detected and could be quantified with respect to the fluorescent tracks of IdU and CIdU labeled DNA (see Materials and Methods).

DT40 cells [4] = conditions: H2O2-treated versus untreated cells
Procedure: as §1

Row | SMILES | DNA damage (AP sites) after Mag Sweeper isolation ([1]; 0.33 and 0.66 μM Dox, 16 hours, then cells processed with Mag Sweeper, versus untreated cells) | DNA damage (level of AP sites) ([1]; 0.33 and 0.66 μM Dox, harvested 16 hours after start, Dox alone, versus untreated cells) | dose dependence of DNA damage ([1]; 0.66 versus 0.33 μM Dox, with and without Mag Sweeper) | number of AP sites per 10^6 nt, slot blot analysis (DT40 cells [2]) [AP sites per 10^6 nt] | number of AP sites per 10^6 nt in CIdU tracks (DT40 cells [3]; replicating DNA labeled after H2O2 exposure (20 μM, FIG. 3)) [per 10^6 nt] | number of AP sites per 10^6 nt in IdU tracks (DT40 cells [3]; replicating DNA labeled before H2O2 exposure (20 μM, FIG. 3)) [per 10^6 nt] | increase of AP sites per 10^6 nt in replicating regions exposed to H2O2 (DT40 cells [3]; replicating regions versus global DNA, H2O2-exposed cells) [%] | clustering of AP sites (DT40 cells [4])
1 | COc1cccc2c1C(=O)c1c(O)c3c(c(O)c1C2=O)C[C@@](O)(C(=O)CO)C[C@@H]3O[C@H]1C[C@H](N)[C@H](O)[C@H](C)O1 [Dox, Doxorubicin] | AP sites increased after Dox treatment | notably increased DNA damage | more damage detected with the higher dose | – | – | – | – | –
2 | OO [H2O2, hydrogen peroxide] | – | – | – | 7.7 | 20.8 | 12.9 | 50 to 150 | more common
